Data on 4 compounds can be found in patent US20230174649A1, “PHARMACEUTICAL COMPOSITIONS CONTAINING ANTI-CD47 ANTIBODIES” (I-MAB BIOPHARMA US LIMITED, priority 2020, published 2023).

Common to all, as to type: cell-based, Human
One series relates to macrophages. Nature of the series: Macrophage Viability Assay (CellTiter-Glo). Particulars: for Macrophage viability (CellTiter-Glo Luminescent Cell Viability Assay): 16 hours, three replicate lines. The method, then: Then, the monocytes isolated by MACS were subsequently cultured in fresh complete medium supplemented with recombinant human granulocyte-macrophage colony-stimulating factor GM-CSF (50 ng/ml) and human recombinant IL-4 (35 ng/ml) to activate differentiated macrophages. After 6 days of culture (on day 7), cells were harvested, pooled together and counted for next use.
The cells from Example 2 were plated into a 96-well flat bottom plate at a density of 0.05×10^6 cells/well. After 2 hours of incubation, the macrophages were well attached to the plate. Then selected small molecule therapeutic agents were added to the well and cocultured for 16 hours. On day 8, macrophage viability was assessed by CellTiter-Glo® Luminescent Cell Viability Assay, according to the manufacture's instruction.
For orientation: Cellular ATP, detected with luciferase, serves as a proxy for viable cell number.

The subject of a further series is CD47. As to the kind of experiment: FACS analysis of expression level of CD47 on tumor cell surface. Particulars: Toledo cells; for Mean Fluorescence Intensity (MFI) CD47: 12 hours. The method, then: (§1) For FACS analysis, on the day of analysis (day 1), Toledo cells were seeded into 96 well plate and cultured at a density of 0.2×10^6 cells/well. Then the cells were treated with the selected small molecule therapeutic agents for 12 hours.
(§2) On day 2, cells were harvested, washed twice and then re-suspended in 100 uL FACS buffer subject to FACS analysis. For detection of the expression of calreticulin and CD47, cells were incubated with anti-calreticulin antibody and commercially available anti-CD47 antibody (BD Biosciences, Catalog number: 561249) in dark at 4° C. for 30 mins.
(§3) Then, the cells were subject to FACS analysis. Data was acquired and analyzed.
For orientation: A flow cytometer gives signals particle by particle.

The test system of another series is Calreticulin. As to the kind of experiment: FACS analysis of expression level of calreticulin on tumor cell surface. Particulars: Toledo cells; for Mean Fluorescence Intensity (MFI) Calreticulin: 12 hours. The procedure:
as §1, §2, §3

“And” between values parts separate entries of the source, which are not always exact repeats. Equal entries are not always repeated.

For `C[C@H](Nc1ncnc2nc[nH]c12)c1cc2cccc(Cl)c2c(=O)n1-c1ccccc1` [Duvelisib], the “Macrophage viability (CellTiter-Glo Luminescent Cell Viability Assay)” value (shortened to “Macrophage viability”) in the series on macrophages (Cpd 0.002 uM) is 5688 and 5876 and 6184; in the series on macrophages (Cpd 0.008 uM) it was 5484 and 5444 and 5664; in the series on macrophages (Cpd 0.04 uM), 5228 and 5348 and 5760; with macrophages (Cpd 0.2 uM), 5028 and 4984 and 5264; with macrophages (Cpd 1 uM), 4592 and 4776 and 4880; in the series with macrophages (Cpd 5 uM), 4464 and 4584 and 4404. Besides, the “Macrophage viability” value with macrophages (Cpd 25 uM) is 4176 and 4276 and 4156; in the series with macrophages (Cpd 50 uM) it was 3972 and 3992 and 3860. In addition, the “toxicity to macrophages” value with macrophages (dose of 0.1-50 μM) was “obvious toxicity”. Also, the “Mean Fluorescence Intensity (MFI) CD47” value amounted to 8368 with CD47 (0.008 uM); 8376 in the series on CD47 (0.04 uM); 8471 in the series with CD47 (0.2 uM); 8432 in the series on CD47 (1 uM); 8482 in the series on CD47 (5 uM). Further, the “Mean Fluorescence Intensity (MFI) Calreticulin” value was 71.4 in the series with Calreticulin (0.008 uM); 71.2 with Calreticulin (0.04 uM); 71.4 with Calreticulin (0.2 uM); 75.7 with Calreticulin (1 uM); 75.9 with Calreticulin (5 uM).
Take `CC[C@H](Nc1ncnc2[nH]cnc12)c1nc2cccc(F)c2c(=O)n1-c1ccccc1` [Idelalisib]: the “Macrophage viability” value in the series with macrophages (Cpd 0.002 uM) was 5888 and 5908 and 5980; in the series with macrophages (Cpd 0.008 uM), 6164 and 6056 and 5948; in the series with macrophages (Cpd 0.04 uM) it was 6144 and 6304 and 5916; with macrophages (Cpd 0.2 uM) it was 6040 and 6048 and 6220; with macrophages (Cpd 1 uM), 5376 and 5640 and 5744; with macrophages (Cpd 5 uM), 5092 and 5220 and 5060. Besides, the “Macrophage viability” value in the series with macrophages (Cpd 25 uM) was 4508 and 4884 and 4908; in the series with macrophages (Cpd 50 uM), 4404 and 4648 and 4964. Moreover, the “toxicity to macrophages” value in the series with macrophages (dose of 0.1-50 μM) is on record as “obvious toxicity”. Besides, the “Mean Fluorescence Intensity (MFI) CD47” value in the series with CD47 (0.008 uM) came to 8342; in the series on CD47 (0.04 uM), 8538; in the series on CD47 (0.2 uM) it was 8246; in the series on CD47 (1 uM), 8465; in the series with CD47 (5 uM) it was 8263. Besides, the “Mean Fluorescence Intensity (MFI) Calreticulin” value in the series with Calreticulin (0.008 uM) is listed as 69.4; in the series with Calreticulin (0.04 uM), 72.9; in the series with Calreticulin (0.2 uM), 70.6; in the series with Calreticulin (1 uM) it was 77.6; in the series with Calreticulin (5 uM) it was 75.8.
Take `COc1c(OCCCN2CCOCC2)ccc2c1N=C(NC(=O)c1cnc(N)nc1)N1CCN=C21` [Copanlisib]: the “Macrophage viability” value in the series on macrophages (Cpd 0.002 uM) was 5856 and 5928 and 6000; in the series on macrophages (Cpd 0.008 uM) it was 5272 and 4772 and 5388; in the series on macrophages (Cpd 0.04 uM) it was 4856 and 5120 and 4872; in the series on macrophages (Cpd 0.2 uM), 4572 (2×) and 4928; in the series on macrophages (Cpd 1 uM), 4156 and 4492 and 4368; in the series with macrophages (Cpd 5 uM), 3780 and 4352 and 4196. Further, the “Macrophage viability” value in the series with macrophages (Cpd 25 uM) was 4108 and 4176 and 4248; in the series with macrophages (Cpd 50 uM), 2748 and 3032 and 3028. Moreover, in the series on macrophages (dose of 0.1-50 μM), the “toxicity to macrophages” value is recorded as “obvious toxicity”. In the series on CD47, the “effect on CD47 expression level” value is “only slightly inhibited”. Further, the “Mean Fluorescence Intensity (MFI) CD47” value in the series with CD47 (0.008 uM) stood at 8024; with CD47 (0.04 uM), 8243; with CD47 (0.2 uM), 7844; in the series on CD47 (1 uM), 7097; in the series on CD47 (5 uM), 6803. In addition, the “effect on expression level of Calreticulin” value with Calreticulin was “only slightly increased”. In addition, the “Mean Fluorescence Intensity (MFI) Calreticulin” value in the series with Calreticulin (0.008 uM) amounted to 69.8; with Calreticulin (0.04 uM), 77; with Calreticulin (0.2 uM), 79.4; in the series on Calreticulin (1 uM), 106; in the series with Calreticulin (5 uM), 142.
Consider `C=CC(=O)N1CCC[C@@H](n2nc(-c3ccc(Oc4ccccc4)cc3)c3c(N)ncnc32)C1` [Ibrutinib], for which the “Macrophage viability” value was 4948 and 4988 and 5520 in the series on macrophages (Cpd 0.002 uM); 4880 and 5316 and 5780 with macrophages (Cpd 0.008 uM); 4688 and 5488 and 5780 in the series with macrophages (Cpd 0.04 uM); 4932 and 5736 and 6152 in the series with macrophages (Cpd 0.2 uM); 5056 and 5624 and 6224 with macrophages (Cpd 1 uM); 4864 and 5828 and 6004 with macrophages (Cpd 5 uM). Moreover, the “Macrophage viability” value with macrophages (Cpd 25 uM) is 4680 and 5100 and 5572; in the series with macrophages (Cpd 50 uM) it was 3732 and 4296 and 4508. For the same compound, the “toxicity to macrophages” value in the series on macrophages (dose as high as 50 μM) is recorded as “showed toxicity”; in the series with macrophages (dose lower than 10 μM), “little toxic”. The “Mean Fluorescence Intensity (MFI) CD47” value with CD47 (0.008 uM) turned out to be 8453; with CD47 (0.04 uM), 8490; in the series with CD47 (0.2 uM), 8415; in the series on CD47 (1 uM), 8345; with CD47 (5 uM), 8345. Further, the “Mean Fluorescence Intensity (MFI) Calreticulin” value with Calreticulin (0.008 uM) was 70.6; in the series with Calreticulin (0.04 uM), 73.1; with Calreticulin (0.2 uM) it was 74.5; with Calreticulin (1 uM), 69.9; in the series on Calreticulin (5 uM) it was 79.
